Measurements published in US11013728B2, “Cyclin-dependent kinase 8 and/or 19 inhibitor” (Kyoto Pharmaceutical Industries, Ltd., priority 2017, dated 2021).

Experiments:
[1] = test system: human acute myeloid leukemia MV4; 11; test: MV4;11 cell proliferation inhibitory activity (CellTiter 96 Aqueous One); type: cell-based; conditions: 72 h, MV4;11 cells, cultured 3 days, read-out: cell proliferation inhibitory rate
Protocol: The human acute myeloid leukemia MV4; 11 cell proliferation inhibitory activity of compound (I) of the present invention was evaluated by the following method.
A cell suspension (100 μL, 10,000 cells/well) of human acute myeloid leukemia MV4; 11 (purchased from American Type Culture Collection) was seeded on a 96 well plate and cultured in a 5% carbon dioxide gas incubator at 37° C. for one day. After the above-mentioned culture, each test compound (compound (I)) was added to a concentration of 1 μM and the mixture was further cultured for 3 days. After the above-mentioned culture, 40 μL of CellTiter 96 (registered trade mark) Aqueous One Solution Cell Proliferation Assay (Promega KK) was added to the 96 well-plate, the mixture was reacted for 3 hr, and the absorbance (490 nm) was measured by a plate reader.
Using the absorbance of the test compound non-addition well as a control and the absorbance of the cell non-seeded well as a blank, the cell proliferation inhibitory rate was determined at 1 μM of each test compound.

[2] = target: T1, CDK19 (Homo sapiens, UniProt Q9BWU1); test: CDK19 inhibitory activity, ELISA kinase assay; type: biochemical; conditions: at 1 μM of test compound; read-out: CDK19 inhibitory rate
T1 construct: purchased Carna Bioscience
T1 sequence (Q9BWU1 whole entry): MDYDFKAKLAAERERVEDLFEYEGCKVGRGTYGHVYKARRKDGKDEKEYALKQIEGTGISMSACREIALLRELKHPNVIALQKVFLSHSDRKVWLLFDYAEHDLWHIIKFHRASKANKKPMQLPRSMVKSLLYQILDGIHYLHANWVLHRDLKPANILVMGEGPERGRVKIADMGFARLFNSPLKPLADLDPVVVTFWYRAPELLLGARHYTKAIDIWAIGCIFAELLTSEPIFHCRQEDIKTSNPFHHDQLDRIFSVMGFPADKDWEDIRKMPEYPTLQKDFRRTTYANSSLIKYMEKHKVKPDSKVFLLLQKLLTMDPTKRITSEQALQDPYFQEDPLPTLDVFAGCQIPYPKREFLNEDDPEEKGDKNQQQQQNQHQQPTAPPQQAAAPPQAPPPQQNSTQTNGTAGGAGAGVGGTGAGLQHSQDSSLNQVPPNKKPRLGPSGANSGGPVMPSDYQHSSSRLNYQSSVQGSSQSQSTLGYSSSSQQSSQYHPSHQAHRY
T1 sequence (P24863 whole entry partner): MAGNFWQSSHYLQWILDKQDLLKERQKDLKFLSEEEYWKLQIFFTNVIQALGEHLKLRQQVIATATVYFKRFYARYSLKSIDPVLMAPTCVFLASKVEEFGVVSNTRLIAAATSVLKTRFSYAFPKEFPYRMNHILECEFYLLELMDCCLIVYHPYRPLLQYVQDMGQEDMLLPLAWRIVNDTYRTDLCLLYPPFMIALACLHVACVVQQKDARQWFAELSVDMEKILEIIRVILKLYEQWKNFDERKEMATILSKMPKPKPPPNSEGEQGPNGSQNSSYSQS
Protocol: The test compound (compound (I)) dissolved in DMSO was diluted with an assay buffer (QSS Assist STK ELISA Kit (CDK8/CycC), Carna Bioscience) to give a primary dilution solution with a DMSO concentration of 40%. The above-mentioned primary dilution solution (10 μL) was dispensed in a streptavidin-coated 96 well plate, and an assay buffer mixture (10 μL) containing 500 nM substrate (Carna Bioscience), 10 mM MgCl2 (Carna Bioscience) and 100 μM ATP (Carna Bioscience) was added. After the above-mentioned addition, 10 μL of a kinase solution was added (1 ng/μL CDK8/CycC (Carna Bioscience) diluted with assay buffer is used for measurement of CDK8 inhibitory activity and for 5 ng/μL […] (Carna Bioscience) diluted with assay buffer is used for measurement of CDK19 inhibitory activity). After the above-mentioned addition, the mixture was stood in an incubator at 24-26° C. for 30 min. […] The reaction was quenched by adding a color developing reaction termination drug (Nacalai Tesque) (100 μL) to each well, and the absorbance (450 nm) was measured by a plate reader.
Using the absorbance of the test compound non-addition well as a control and the absorbance of the enzyme non-addition well as a blank, the CDK8 and CDK19 inhibitory rate was determined at 1 μM of each test compound.

[3] = test system: 39 kinds of serine/threonine kinase; test: Off-chip Mobility Shift Assay (MSA), serine/threonine kinase panel; type: biochemical; conditions: test compound 1 μM; 39 kinases listed in b243 (AKT1 ... TSSK1, incl. CDK2, 3, 4, 5, 6, 7, 9)
Protocol: The action of compound (I) of the present invention on serine/threonine kinase activity was examined by Off-chip Mobility Shift Assay (MSA). The method is shown below.
The action of a test compound (1 μM) on 39 kinds of serine/threonine kinase activity was examined. A solution of 4-fold concentration of compound 32 (5 μL) prepared by using an assay buffer (20 mM HEPES, 0.01% Triton X-100, 2 mM DTT, pH 7.5), a substrate/ATP/metal solution (5 μL) and a kinase […] solution (10 μL) were mixed in a well of a polypropylene 384 well plate and the mixture was reacted at room temperature for 1 or 5 hr. The reaction was discontinued by adding 70 μL of Termination Buffer (Carna Biosciences). The substrate peptide and phosphorylated peptide in the reaction solution were separated and quantified by LabChip System (Perkin Elmer).
The kinase reaction was evaluated based on a resultant product ratio (P/(P+S)) calculated from substrate peptide peak height (S) and phosphorylated peptide peak height (P).

[4] = test system: various cancer cells; conditions: reported in non-patent document 3; remarkable effects on leukemia cells; cited from earlier work

| Compound | inhibition at 1 µM [1] [%] | other results |
| --- | --- | --- |
| NC(=O)c1ccc([N+](=O)[O-])c(Nc2ccc(N3CC(OCCO)C3)cc2)c1 [Compound 5, 3-{4-[3-(2-hydroxyethoxy)azetidin-1-yl]phenylamino}-4-nitrobenzamide] | ≥ 50 | – |
| CC(=O)c1ccc(C(N)=O)cc1Oc1ccc(N2CC(OCCO)C2)cc1 [Compound 28, 4-acetyl-3-{4-[3-(2-hydroxyethoxy)azetidin-1-yl]phenoxy}benzamide] | ≥ 50 | – |
| CC(=O)c1ccc(C(N)=O)cc1Oc1ccc(OCCOC2CCOCC2)cc1 [Compound 32, 4-acetyl-3-{4-[2-(tetrahydropyran-4-yloxy)ethoxy]phenoxy}benzamide] | ≥ 50 | inhibition at 1 µM [2]: ≥ 90%; action on serine/threonine kinase activity [3]: did not affect |
| CC(=O)c1ccc(C(N)=O)cc1Oc1ccc(OCCOCCOC(C)C)cc1 [Compound 33, 4-acetyl-3-{4-[2-(2-isopropoxyethoxy)ethoxy]phenoxy}benzamide] | ≥ 50 | – |
| C[C@@H](O)c1ccc(C(N)=O)cc1Oc1ccc(OCCOC2CCOCC2)cc1 [Compound 43] | – | inhibition at 1 µM [2]: ≥ 90% |
| CNC(=O)c1ccc([N+](=O)[O-])c(Nc2ccc(N3CC(OCCO)C3)cc2)c1 [Compound 48, 3-{4-[3-(2-hydroxyethoxy)azetidin-1-yl]phenylamino}-N-methyl-4-nitrobenzamide] | ≥ 50 | – |
| NC(=O)c1ccc([N+](=O)[O-])c(Nc2ccc(OCCOC3CCOCC3)cc2)c1 [Compound 50, 4-nitro-3-{4-[2-(tetrahydropyran-4-yloxy)ethoxy]phenylamino}benzamide] | ≥ 50 | – |
| NC(=O)c1ccc(C(F)(F)F)c(Oc2ccc(OCCOC3CCOCC3)cc2)c1 [Compound 64, 3-{4-[2-(tetrahydropyran-4-yloxy)ethoxy]phenoxy}-4-trifluoromethylbenzamide] | ≥ 50 | – |
| CC(=O)c1ccc(C(N)=O)cc1Oc1ccc(OCCOC2CCOC2)cc1 (stereo not shown) [Compound 67, 4-acetyl-3-{4-[2-(tetrahydrofuran-3-yloxy)ethoxy]phenoxy}benzamide] | ≥ 50 | – |
| C=C(F)c1ccc(C(N)=O)cc1Oc1ccc(OCCOC2CCOCC2)cc1 [Compound 84, 4-(1-fluorovinyl)-3-{4-[2-(tetrahydropyran-4-yloxy)ethoxy]phenoxy}benzamide] | ≥ 50 | – |
| Cortistatin A | – | proliferation of various cancer cells [4]: suppresses proliferation |
